Experimental data taken from patent US20240390902A1, “METHODS AND SYSTEMS FOR SORTING BIOLOGICAL PARTICLES” (Newomics Inc., priority 2017, published 2024).
“And” between values parts separate entries of the source, which are not always exact repeats. Equal entries are not always repeated. Where two headings read alike, the source gives them in different places.

Columns and labels:
[1] = tested on: human mesenchymal stem cells (hMSCs); details: 300 μM H2O2, 3 hours (FIG. 19B)
Description: Cell culture and staining. Human mesenchymal stem cells (MSCs) were derived from a person and purchased from Lonza (Lonza, 0000471980). […] Cells were cultured in a humidified incubator (Symphony 5.3A CO2 incubator, VWR, USA) at 37° C. with 5% CO2. MSCs basal medium (PT-3238, Lonza) with MSCGM™ SingleQuots supplement kit (PT-4105, Lonza) was used for hMSC culture, and MesenCult™ Expansion kit (5513, [sequence] Technologies, Canada) was used for mMSC culture. Both media were supplemented with 1% penicillin-streptomycin (15140122, ThermoFisher Scientific, USA) to prevent cell contamination during culture. Basal MSCs were stained with either Hoechst (Hoechst 33342, H3570, ThermoFisher Scientific, USA) for 10 minutes or cell tracker (C2102, CellTracker™ green BODIPY™ dye, ThermoFisher Scientific, USA) for 15 minutes. In all cases, adhesive cells were detached using Trypsin/EDTA (CC3232, Lonza) at 37° C. for 10 minutes. The size of trypsinized cells was measured by the analytical tool provided in the Olympus cellSens Dimension software.

[2] = tested on: mouse mesenchymal stem cells (mMSCs); details: 150 μM H2O2; each timepoint including 24 hours after treatment
Description: Cellular senescence induction of mouse MSCs. […] At each timepoint, mMSCs were labeled with a senescence detection kit in a 37° C. incubator overnight. The senescence cell ratio was calculated by dividing the SA-β gal^+ cells over the total number of cells counted.

[3] = tested on: mouse mesenchymal stem cells (mMSCs)
Description: Mouse mesenchymal stem cells (MSCs) were purchased from Cyagen (Strain C57BL/6 Mouse Mesenchymal Stem Cells, MUBMX-01001, Cyagen, USA). Cells were cultured in a humidified incubator (Symphony 5.3A CO2 incubator, VWR, USA) at 37° C. with 5% CO2. MSCs basal medium (PT-3238, Lonza) with MSCGM™ SingleQuots supplement kit (PT-4105, Lonza) was used for hMSC culture, and MesenCult™ Expansion kit (5513, [sequence] Technologies, Canada) was used for mMSC culture. Both media were supplemented with 1% penicillin-streptomycin (15140122, ThermoFisher Scientific, USA) to prevent cell contamination during culture. Basal MSCs were stained with either Hoechst (Hoechst 33342, H3570, ThermoFisher Scientific, USA) for 10 minutes or cell tracker (C2102, CellTracker™ green BODIPY™ dye, ThermoFisher Scientific, USA) for 15 minutes. In all cases, adhesive cells were detached using Trypsin/EDTA (CC3232, Lonza) at 37° C. for 10 minutes. The size of trypsinized cells was measured by the analytical tool provided in the Olympus cellSens Dimension software.

[4] = tested on: human mesenchymal stem cells (hMSCs)
Description: Senescent cell model and staining. hMSCs or mMSCs senescence was induced chemically using hydrogen peroxide or using X-ray radiation. The medium containing hydrogen peroxide (H2O2) was prepared by diluting 30% H2O2 solution (H1009, Sigma, USA) with MSCs culture medium to desired concentrations. For the H2O2 treatment experiments, the MSCs were cultured in the medium containing H2O2 at 37° C. for 3 hours. After that, the MSCs were washed with 1×DPBS 2 times and cultured in the fresh media for a variable number of days before analysis. For X-ray radiation treatment, MSCs were placed on a rotating table and exposed to 1 gray (Gy), 4 Gy, or 6 Gy radiation. After treatment, cells were cultured for a variable number of days before analysis. The senescent cells were identified by the senescence detection kit (K320, BioVision, USA), which targets senescence-associated β-galactosidase (SA-β-gal) activity, following the manufacturer's provided protocol. […] For the experiments using the mixture of basal and H2O2-treated hMSCs, the H2O2-treated hMSCs were stained with cell tracker (C34551, CellTracker™ orange CMRA Dye™ dye, ThermoFisher Scientific, USA), while basal hMSCs were stained with Hoechst for 10 minutes to differentiate two cell populations.
Cellular senescence induction of human MSCs. Hydrogen peroxide (H2O2) was used to induce cellular senescence of human MSCs. We tested three H2O2 concentrations: 100, 200, and 300 μM. Concentrated H2O2 (100×) was prepared and was added to hMSC culture media using a 1 to 100 dilution, after which, hMSCs were cultured in H2O2 contained medium in a 37° C. incubator for three hours. After H2O2 treatment, the H2O2 contained medium was withdrawn and the culture wells were washed with DPBS two times. Fresh culture medium was then added to cells for 1, 4, and 7 days post-culture. hMSCs were detached using Trypsin/EDTA, then labeled with a senescence detection kit in a 37° C. incubator overnight following the manufacturer's recommended protocol (K320, BioVision, USA). The senescence kit targets senescence-associated β-galactosidase (SA-β-gal) activity within cells. The SA-β gal^+ cells and total cells were counted to estimate the senescence cell ratio. […] For the experiment to mix basal hMSCs with H2O2 treated hMSCs, the basal hMSCs followed the same culture protocol, but without H2O2 treatment.

[5] = tested on: human mesenchymal stem cells (hMSCs); assay: Necrosis of human MSCs (apoptosis kit, annexin V-FITC / SYTOX green); details: for necrotic cell percentage of hMSCs: 300 μM H2O2 treated
[6] = 150 μM H2O2 for three hours, after culturing for 1 day
[7] = 300 μM H2O2 treated hMSCs, cultured 7 days, stored at 4° C. another 2 days (FIG. 19B)

`OO` [H2O2, hydrogen peroxide] was tested, and the “size of hMSCs” value [1] was 29.4+/−3.2 μm, the “senescence ratio of mMSCs versus cells without H2O2 treatment” value [2] was “higher” and the “increase of size compared to basal mMSCs” value [3, 6] was 3.5 μm. For the same compound, the “size of mMSCs” value [3, 6] was 16.8+/−2.5 μm, the “purity of cells >15 μm” value ([3]; H2O2 (150 μM) treated mMSCs, sample input) was 43.5% and the “percentage of senescent hMSCs” value ([4]; 300 μM H2O2 for 3 hours, 1 day post-treatment) was 9.9%. For the same compound, the “percentage of senescent hMSCs” value ([4]; 300 μM H2O2 for 3 hours, 3 days post-treatment) was 16.5%, the “percentage of senescent hMSCs (senescence ratio)” value ([4]; 300 μM H2O2 for 3 hours, 7 days post-treatment) was ~50% and 57.7% and the “percentage of senescent cells” value [4, 7] was 51.7%. For the same compound, the “percentage of necrotic cells” value [5, 7] was 37%, the “percentage of viable cells” value [5, 7] was 11.3% and the “necrotic cell percentage of hMSCs” value ([5]; before storage at 4° C.) was 25%. The “necrotic cell percentage of hMSCs” value ([5]; stored at 4° C. refrigerator for 2 days) was 56%.
